In ChEMBL document CHEMBL4130358, “Chemoselective synthesis and biological evaluation of arylated 2-(Trifluoromethyl) quinolines as nucleotide pyrophosphatase (NPPs) inhibitors” (Eur J Med Chem, 2017):

How the values were obtained:
[1] = molecular target: T1, Ectonucleotide pyrophosphatase/phosphodiesterase family member 3 (Homo sapiens, UniProt O14638); test: Inhibition of human full length NPP3 expressed in African green monkey COS7 cell membrane fraction using p-nitrophenyl-5'-thymidine monophosphate as substrate preincubated for 10 mins followed by substrate addition measured after 30 mins
T1 sequence (O14638 whole entry): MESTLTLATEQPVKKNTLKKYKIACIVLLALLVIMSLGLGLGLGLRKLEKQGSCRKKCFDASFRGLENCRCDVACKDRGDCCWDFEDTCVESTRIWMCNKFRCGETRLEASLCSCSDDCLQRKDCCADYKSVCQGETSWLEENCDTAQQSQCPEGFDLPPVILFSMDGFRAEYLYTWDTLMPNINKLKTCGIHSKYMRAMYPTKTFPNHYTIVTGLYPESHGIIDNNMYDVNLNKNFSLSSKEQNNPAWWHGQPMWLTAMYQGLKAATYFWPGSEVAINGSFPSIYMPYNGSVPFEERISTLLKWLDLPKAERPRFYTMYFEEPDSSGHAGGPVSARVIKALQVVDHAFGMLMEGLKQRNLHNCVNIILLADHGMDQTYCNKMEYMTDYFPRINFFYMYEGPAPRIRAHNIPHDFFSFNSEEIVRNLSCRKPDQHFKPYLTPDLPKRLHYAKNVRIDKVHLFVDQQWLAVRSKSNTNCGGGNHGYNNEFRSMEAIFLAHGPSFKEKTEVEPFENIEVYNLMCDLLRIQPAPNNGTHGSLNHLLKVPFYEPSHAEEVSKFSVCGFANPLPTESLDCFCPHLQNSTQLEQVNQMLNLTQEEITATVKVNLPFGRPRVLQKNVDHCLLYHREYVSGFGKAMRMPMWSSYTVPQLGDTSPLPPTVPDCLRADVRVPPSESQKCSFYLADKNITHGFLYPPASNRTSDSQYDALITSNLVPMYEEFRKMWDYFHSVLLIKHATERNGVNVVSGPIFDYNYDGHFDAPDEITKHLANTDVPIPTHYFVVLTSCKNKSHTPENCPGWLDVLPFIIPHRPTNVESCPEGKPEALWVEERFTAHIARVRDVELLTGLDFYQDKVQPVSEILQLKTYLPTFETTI

[2] = molecular target: T2, Ectonucleotide pyrophosphatase/phosphodiesterase family member 1 (Homo sapiens, UniProt P22413); test: Inhibition of human full length NPP1 expressed in African green monkey COS7 cell membrane fraction using p-nitrophenyl-5'-thymidine monophosphate as substrate preincubated for 10 mins followed by substrate addition measured after 30 mins
T2 sequence (P22413 whole entry): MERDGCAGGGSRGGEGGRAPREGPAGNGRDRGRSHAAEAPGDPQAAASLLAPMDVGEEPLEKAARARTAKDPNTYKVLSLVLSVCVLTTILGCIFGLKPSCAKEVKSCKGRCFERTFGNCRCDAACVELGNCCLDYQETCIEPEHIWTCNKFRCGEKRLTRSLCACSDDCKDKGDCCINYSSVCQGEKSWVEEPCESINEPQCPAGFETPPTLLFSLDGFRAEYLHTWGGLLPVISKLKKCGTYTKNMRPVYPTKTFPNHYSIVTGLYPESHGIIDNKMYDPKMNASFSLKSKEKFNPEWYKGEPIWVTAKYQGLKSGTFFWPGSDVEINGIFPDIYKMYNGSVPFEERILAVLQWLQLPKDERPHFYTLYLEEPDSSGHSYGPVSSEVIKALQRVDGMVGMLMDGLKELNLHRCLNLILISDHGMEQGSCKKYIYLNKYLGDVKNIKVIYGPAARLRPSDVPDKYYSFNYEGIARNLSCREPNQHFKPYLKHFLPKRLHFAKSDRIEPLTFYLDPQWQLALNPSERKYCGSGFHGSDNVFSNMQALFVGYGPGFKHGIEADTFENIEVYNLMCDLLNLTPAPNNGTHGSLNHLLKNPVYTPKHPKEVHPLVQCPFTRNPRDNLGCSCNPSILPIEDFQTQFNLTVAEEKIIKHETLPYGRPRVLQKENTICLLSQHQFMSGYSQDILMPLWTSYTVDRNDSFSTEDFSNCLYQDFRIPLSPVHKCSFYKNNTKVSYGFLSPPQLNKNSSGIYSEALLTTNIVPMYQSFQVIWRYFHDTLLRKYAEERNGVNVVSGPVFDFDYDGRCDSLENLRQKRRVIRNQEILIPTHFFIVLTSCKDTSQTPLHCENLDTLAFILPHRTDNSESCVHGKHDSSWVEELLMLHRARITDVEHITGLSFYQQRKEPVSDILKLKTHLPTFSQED

[3] = molecular target: T3, Ectonucleoside triphosphate diphosphohydrolase 1 (Homo sapiens, UniProt P49961); test: Inhibition of human NTPDase1 expressed in African green monkey COS7 cell membrane fraction using ATP as substrate preincubated for 10 mins followed by substrate addition measured after 10 mins by malachite green reagent-based assay
T3 sequence (P49961 whole entry): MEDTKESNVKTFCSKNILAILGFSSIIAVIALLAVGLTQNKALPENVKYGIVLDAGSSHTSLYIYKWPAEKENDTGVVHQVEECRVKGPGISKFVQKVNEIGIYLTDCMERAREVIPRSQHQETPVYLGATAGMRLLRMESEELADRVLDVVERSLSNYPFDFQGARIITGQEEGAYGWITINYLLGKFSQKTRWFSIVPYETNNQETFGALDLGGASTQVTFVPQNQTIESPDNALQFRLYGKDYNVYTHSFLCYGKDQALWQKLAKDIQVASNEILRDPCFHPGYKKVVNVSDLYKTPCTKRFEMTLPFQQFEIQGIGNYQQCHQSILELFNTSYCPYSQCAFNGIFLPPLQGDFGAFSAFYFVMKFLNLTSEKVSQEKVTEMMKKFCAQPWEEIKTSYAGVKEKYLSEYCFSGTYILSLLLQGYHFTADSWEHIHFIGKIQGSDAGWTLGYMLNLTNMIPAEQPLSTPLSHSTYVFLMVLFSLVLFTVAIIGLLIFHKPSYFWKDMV

[4] = molecular target: T4, Ectonucleoside triphosphate diphosphohydrolase 3 (Homo sapiens, UniProt O75355); test: Inhibition of human NTPDase3 expressed in African green monkey COS7 cell membrane fraction using ATP as substrate preincubated for 10 mins followed by substrate addition measured after 10 mins by malachite green reagent-based assay
T4 sequence (O75355 whole entry): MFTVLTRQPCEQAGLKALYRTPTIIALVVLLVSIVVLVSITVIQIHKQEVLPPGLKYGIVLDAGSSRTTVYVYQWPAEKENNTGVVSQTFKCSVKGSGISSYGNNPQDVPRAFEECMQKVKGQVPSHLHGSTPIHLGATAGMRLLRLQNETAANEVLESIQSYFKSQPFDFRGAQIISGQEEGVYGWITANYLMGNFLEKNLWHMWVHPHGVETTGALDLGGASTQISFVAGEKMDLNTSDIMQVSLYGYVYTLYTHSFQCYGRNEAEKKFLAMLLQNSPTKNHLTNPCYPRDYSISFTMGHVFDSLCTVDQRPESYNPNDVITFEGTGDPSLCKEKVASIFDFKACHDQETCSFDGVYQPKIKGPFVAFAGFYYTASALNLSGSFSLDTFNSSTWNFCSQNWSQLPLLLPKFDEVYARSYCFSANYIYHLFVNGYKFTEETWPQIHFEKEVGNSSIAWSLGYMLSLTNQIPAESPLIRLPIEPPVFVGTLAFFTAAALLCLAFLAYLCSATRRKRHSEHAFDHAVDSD

[5] = molecular target: T5, Ectonucleoside triphosphate diphosphohydrolase 2 (Homo sapiens, UniProt Q9Y5L3); test: Inhibition of human NTPDase2 expressed in African green monkey COS7 cell membrane fraction using ATP as substrate preincubated for 10 mins followed by substrate addition measured after 10 mins by malachite green reagent-based assay
T5 sequence (Q9Y5L3 whole entry): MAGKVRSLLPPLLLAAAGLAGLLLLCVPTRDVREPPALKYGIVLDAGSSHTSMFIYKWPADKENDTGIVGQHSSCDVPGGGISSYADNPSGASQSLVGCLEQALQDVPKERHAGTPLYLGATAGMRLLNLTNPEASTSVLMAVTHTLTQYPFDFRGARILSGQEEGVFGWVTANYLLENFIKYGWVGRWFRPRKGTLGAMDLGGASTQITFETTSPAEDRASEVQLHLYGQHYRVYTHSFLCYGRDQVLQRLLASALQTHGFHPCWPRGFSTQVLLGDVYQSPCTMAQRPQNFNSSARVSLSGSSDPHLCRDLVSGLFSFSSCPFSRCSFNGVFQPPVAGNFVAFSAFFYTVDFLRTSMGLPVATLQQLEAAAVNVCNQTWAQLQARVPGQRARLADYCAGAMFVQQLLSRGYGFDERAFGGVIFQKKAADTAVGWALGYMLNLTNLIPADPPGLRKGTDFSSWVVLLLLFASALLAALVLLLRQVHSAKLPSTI

[6] = molecular target: T6, Ectonucleoside triphosphate diphosphohydrolase 8 (Homo sapiens, UniProt Q5MY95); test: Inhibition of human NTPDase8 expressed in African green monkey COS7 cell membrane fraction using ATP as substrate preincubated for 10 mins followed by substrate addition measured after 10 mins by malachite green reagent-based assay
T6 sequence (Q5MY95 whole entry): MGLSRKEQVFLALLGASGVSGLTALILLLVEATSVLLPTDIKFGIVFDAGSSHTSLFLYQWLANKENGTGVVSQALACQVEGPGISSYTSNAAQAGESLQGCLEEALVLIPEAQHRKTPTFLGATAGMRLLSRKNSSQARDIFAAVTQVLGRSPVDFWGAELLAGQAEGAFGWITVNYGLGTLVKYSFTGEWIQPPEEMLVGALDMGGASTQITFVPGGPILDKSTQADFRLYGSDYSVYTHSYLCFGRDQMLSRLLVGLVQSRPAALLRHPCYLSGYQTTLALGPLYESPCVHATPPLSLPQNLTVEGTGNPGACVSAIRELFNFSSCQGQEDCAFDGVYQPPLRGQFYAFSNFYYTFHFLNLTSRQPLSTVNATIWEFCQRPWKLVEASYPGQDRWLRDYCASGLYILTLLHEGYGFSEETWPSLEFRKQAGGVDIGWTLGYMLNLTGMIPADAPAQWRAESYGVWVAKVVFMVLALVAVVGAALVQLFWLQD

Row | Compound | IC50 [1] | IC50 [2] | IC50 [3] | IC50 [4] | IC50 [5] | IC50 [6]
1 | Fc1ccc(-c2c(C(F)(F)F)nc3c(-c4ccc(F)cc4)cccc3c2-c2ccc(F)cc2)cc1 | > 100 µM | 0.51 µM | – | – | – | –
2 | N#Cc1cccc(-c2cccc3c(Cl)c(Br)c(C(F)(F)F)nc23)c1 | > 100 µM | 0.35 µM | – | – | – | –
3 | FC(F)(F)c1nc2c(-c3ccsc3)cccc2c(Cl)c1Br | > 100 µM | 5.76 µM | > 300 µM | > 300 µM | > 300 µM | > 300 µM
4 | FC(F)(F)c1ccc(-c2cccc3c(Cl)c(Br)c(C(F)(F)F)nc23)cc1 | > 100 µM | 0.31 µM | – | – | – | –
5 | COc1ccc(-c2cccc3c(Cl)c(Br)c(C(F)(F)F)nc23)cc1 | 1.14 µM | 0.39 µM | – | – | – | –
6 | COc1ccc(-c2c(C(F)(F)F)nc3c(-c4ccc(OC)cc4)cccc3c2-c2ccc(OC)cc2)cc1 | > 100 µM | 9.87 µM | > 300 µM | > 300 µM | > 300 µM | > 300 µM
7 | Cc1ccc(C(=O)Nc2ccc(S(=O)(=O)O)c3cc(S(=O)(=O)O)cc(S(=O)(=O)O)c23)cc1NC(=O)c1cccc(NC(=O)Nc2cccc(C(=O)Nc3cc(C(=O)Nc4ccc(S(=O)(=O)O)c5cc(S(=O)(=O)O)cc(S(=O)(=O)O)c45)ccc3C)c2)c1 [SURAMIN] | – | – | – | – | – | > 100 µM

Results, then the compound that gave them:

Row | IC50 [1] | IC50 [2] | IC50 [3] | IC50 [4] | IC50 [5] | IC50 [6] | Compound
8 | 0.39 µM | 7.65 µM | – | – | – | – | FC(F)(F)c1nc2c(Br)cccc2c(Cl)c1Br
9 | > 100 µM | 20.7 µM | > 300 µM | > 300 µM | > 300 µM | > 300 µM | Cc1cccc(-c2c(C(F)(F)F)nc3c(-c4cccc(C)c4)cccc3c2-c2cccc(C)c2)c1
10 | > 100 µM | 2.81 µM | > 300 µM | > 300 µM | > 300 µM | > 300 µM | FC(F)(F)c1nc2c(-c3ccccc3)cccc2c(Cl)c1-c1ccccc1
11 | 0.36 µM | 0.25 µM | – | – | – | – | COc1ccc(OC)c(-c2cccc3c(Cl)c(Br)c(C(F)(F)F)nc23)c1
12 | > 100 µM | 0.18 µM | – | – | – | – | FC(F)(F)c1nc2c(-c3ccccc3)cccc2c(-c2ccccc2)c1-c1ccccc1
13 | > 100 µM | 0.73 µM | – | – | – | – | Cc1ccc(-c2c(C(F)(F)F)nc3c(-c4ccc(C)cc4)cccc3c2-c2ccc(C)cc2)cc1
14 | 2.42 µM | 0.63 µM | – | – | – | – | O=c1c(Br)c(C(F)(F)F)[nH]c2c(Br)cccc12
